In the NIST ThermoML archive (doi:10.1016/j.fluid.2018.01.017):
Numbers after ± are expanded uncertainties.

Columns and labels:
[1] = xn = mol fraction of the nth substance listed; conditions: 298.15 K, 86.6 kPa, Liquid; for speed of sound: Anton Parr, DSA 5000 densimeter and speed of sound analyzer; for mass density: Vibrating tube method
[2] = refractive index (Na D-line) (dimensionless); xn = mol fraction of the nth substance listed; conditions: 298.15 K, 86.6 kPa, Liquid, Standard Abbe refractometry

speed of sound ([1]; x2 = 0.5)	mass density ([1]; x2 = 0.5)	refractive index ([2]; x2 = 0.5)	speed of sound ([1]; x2 = 0.333)	mass density ([1]; x2 = 0.333)	refractive index ([2]; x2 = 0.333)	SMILES
1962.7 ± 1.7 m/s	1251.47 ± 0.54 kg/m3	1.4887 ± 0.0005	–	–	–	O=C(O)CC(=O)O [propanedioic acid] + C[N+](C)(C)CCO.[Cl-]
–	–	–	2062.3 ± 2.2 m/s	1193.93 ± 0.94 kg/m3	1.5041 ± 0.0006	NC(N)=O [urea] + C[N+](C)(C)CCO.[Cl-]
1925 ± 1.7 m/s	1210.93 ± 0.5 kg/m3	1.4809 ± 0.0005	–	–	–	O=C(O)C(=O)O [ethanedioic acid] + C[N+](C)(C)CCO.[Cl-]
